In ChEMBL document CHEMBL1122972, “Angiotensin-converting enzyme inhibitors: synthesis and biological activity of acyl tripeptide analogues of enalapril” (J Med Chem, 1985):
Square brackets hold non-standard residues; d marks the D form. Peptide text beside a SMILES is read from it. * marks the point of attachment. Hydrocinnamoyl = O=C(CCc1ccccc1)*; pGlu = O=C1CC[C@@H](C(=O)O)N1; Bz = O=C(c1ccccc1)*

The molecules below were run against Angiotensin-converting enzyme (Homo sapiens, UniProt P12821) (assay: In vitro inhibitory activity against Angiotensin I converting enzyme). Details: read-out: I50.
Sequence of Angiotensin-converting enzyme (P12821 whole entry): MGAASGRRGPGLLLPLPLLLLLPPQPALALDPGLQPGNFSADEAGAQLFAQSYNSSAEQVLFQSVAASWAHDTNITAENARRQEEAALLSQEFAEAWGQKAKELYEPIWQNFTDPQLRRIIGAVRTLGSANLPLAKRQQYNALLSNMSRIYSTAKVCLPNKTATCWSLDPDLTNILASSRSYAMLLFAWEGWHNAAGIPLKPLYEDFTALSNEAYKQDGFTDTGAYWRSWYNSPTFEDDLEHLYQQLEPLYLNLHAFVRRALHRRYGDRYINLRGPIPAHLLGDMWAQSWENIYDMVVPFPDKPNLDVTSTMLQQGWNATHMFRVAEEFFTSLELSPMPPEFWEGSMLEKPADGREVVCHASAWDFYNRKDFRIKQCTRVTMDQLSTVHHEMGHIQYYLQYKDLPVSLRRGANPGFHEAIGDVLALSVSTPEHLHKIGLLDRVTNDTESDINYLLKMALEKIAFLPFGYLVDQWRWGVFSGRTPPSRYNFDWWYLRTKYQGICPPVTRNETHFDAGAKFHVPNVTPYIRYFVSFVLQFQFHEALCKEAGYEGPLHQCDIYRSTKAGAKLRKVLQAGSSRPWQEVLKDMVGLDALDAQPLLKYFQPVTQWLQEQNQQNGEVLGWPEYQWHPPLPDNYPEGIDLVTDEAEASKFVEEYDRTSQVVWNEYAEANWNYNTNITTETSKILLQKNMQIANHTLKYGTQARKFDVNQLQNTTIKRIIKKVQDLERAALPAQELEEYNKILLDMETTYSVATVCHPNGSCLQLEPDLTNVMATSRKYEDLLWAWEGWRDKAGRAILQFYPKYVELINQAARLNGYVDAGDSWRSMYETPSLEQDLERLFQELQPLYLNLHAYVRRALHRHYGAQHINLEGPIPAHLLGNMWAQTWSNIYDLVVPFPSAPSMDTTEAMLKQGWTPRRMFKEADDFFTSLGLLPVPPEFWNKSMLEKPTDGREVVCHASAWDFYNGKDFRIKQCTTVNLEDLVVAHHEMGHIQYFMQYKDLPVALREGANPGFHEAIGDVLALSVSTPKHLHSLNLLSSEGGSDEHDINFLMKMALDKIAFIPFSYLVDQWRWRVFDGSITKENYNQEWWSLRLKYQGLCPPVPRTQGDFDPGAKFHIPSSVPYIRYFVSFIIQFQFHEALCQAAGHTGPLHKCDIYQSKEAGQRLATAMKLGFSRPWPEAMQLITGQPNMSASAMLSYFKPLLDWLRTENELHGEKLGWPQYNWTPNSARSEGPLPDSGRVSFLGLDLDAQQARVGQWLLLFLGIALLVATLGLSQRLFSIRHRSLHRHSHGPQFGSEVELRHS

| SMILES | IC50 |
| --- | --- |
| C[C@H](N[C@@H](C(=O)O)[C@H](Cc1ccccc1)NC(=O)c1ccccc1)C(=O)N1CCC[C@H]1C(=O)O | 1.4 µM |
| O=C(CCC(=O)N1CCCC1C(=O)O)CCc1ccccc1 (centres undefined) | 2600 µM |
| C[C@H](N[C@H](C(=O)O)[C@@H]1CCCN1)C(=O)N1CCC[C@H]1C(=O)O | 0.7 µM |
| C[C@H](NC(=O)[C@@H](N)Cc1ccccc1)C(=O)N1CCC[C@H]1C(=O)O (H-Phe-Ala-Pro-OH) | 1.4 µM |
| C[C@H](N[C@H](C(=O)O)[C@H](Cc1ccccc1)NC(=O)c1ccccc1)C(=O)N1CCC[C@H]1C(=O)O | 0.0077 µM |
| C[C@H](N[C@@H](CNC(=O)c1ccccc1)C(=O)O)C(=O)N1CCC[C@H]1C(=O)O | 0.017 µM |
| C[C@H](N[C@@H](C[C@H](Cc1ccccc1)NC(=O)c1ccccc1)C(=O)O)C(=O)N1CCC[C@H]1C(=O)O | 0.003 µM |
| C[C@H](NC(=O)[C@H](Cc1ccccc1)NC(=O)[C@H](CCCCN)NC(=O)[C@@H]1CCC(=O)N1)C(=O)N1CCC[C@H]1C(=O)O ([pGlu]KFAP-OH) | 5 µM |
| C[C@H](NC(CNC(=O)c1ccccc1)C(=O)O)C(=O)N1CCC[C@H]1C(=O)O (some centres undefined) | 0.04 µM |
| CC(NC(C(=O)O)C1CCCN1C(=O)c1ccccc1)C(=O)N1CCCC1C(=O)O (centres undefined) | 0.0029 µM |
| C[C@H](N[C@H](C[C@H](Cc1ccccc1)NC(=O)c1ccccc1)C(=O)O)C(=O)N1CCC[C@H]1C(=O)O | 0.0048 µM |
| CC(=O)N1CCCC1C(NC(C)C(=O)N1CCCC1C(=O)O)C(=O)O (centres undefined) | 0.0094 µM |
| C[C@H](NC(=O)CCc1ccccc1)C(=O)N1CCC[C@H]1C(=O)O (Hydrocinnamoyl-Ala-Pro-OH) | 330 µM |
| C[C@H](NC(=O)[C@H](Cc1ccccc1)NC(=O)c1ccccc1)C(=O)N1CCC[C@H]1C(=O)O (Bz-Phe-Ala-Pro-OH) | 2.7 µM |
